Experiments:
[1] = Octanol-water partition coefficient, log P of the compound; type: physicochemical
Rattus norvegicus = assay: Ratio of compound to iproniazid for in vivo inhibition of monoamine oxidase in rat brain assessed as increase in serotonin production after 16 hrs; type: functional

Compound | logP ([1]; read-out: logP) | logP [1] | Ratio (Rattus norvegicus)
CC(C)NNC(=O)c1ccco1 | – | – | 156
CC(C)NNC(=O)c1cnccn1 | – | – | 152
CC(C)NNC(=O)c1cccc(Cl)c1 | 2.84 | – | 123
CC(C)NNC(=O)c1cc[nH]n1 | – | – | 84
Cc1ccc(C(=O)NNC(C)C)cc1C | 3.25 | – | 76
CC(C)NNC(=O)c1ccccc1N | 0.9 | – | 60
CC(C)NNC(=O)c1c[nH]nn1 | – | – | 38
CC(C)NNC(=O)c1cccnn1 | – | – | 0
CC(C)NNC(=O)c1ccccc1O | 1.46 | – | 0
Cc1ncc(C(=O)NNC(C)C)c(C)n1 | -0.4 | – | 0
Cc1noc(C)c1C(=O)NNC(C)C | 1.2 | – | 0

Further lines, with some results ahead:

logP ([1]; read-out: logP) | logP [1] | Compound | Ratio (Rattus norvegicus)
1.61 | – | CC(C)NNC(=O)c1cccs1 | 198
1.61 | – | CC(C)NNC(=O)c1ccsc1 | 192
0.32 | – | CC(C)NNC(=O)c1ccccn1 | 191
2.84 | – | CC(C)NNC(=O)c1ccc(Cl)cc1 | 134
1.85 | – | CC(C)NNC(=O)c1cccc([N+](=O)[O-])c1 | 125
0.32 | – | CC(C)NNC(=O)c1cccnc1 | 111
3.66 | – | CC(C)NNC(=O)c1ccc(C(C)C)cc1 | 97
2.11 | – | COc1ccc(C(=O)NNC(C)C)cc1 | 63
0.44 | – | Cc1ncsc1C(=O)NNC(C)C | 38
0.9 | – | CC(C)NNC(=O)c1ccc(N)cc1 | 15
1.46 | – | CC(C)NNC(=O)c1ccc(O)cc1 | 11
– | 0.32 | CC(C)NNC(=O)c1ccncc1 [IPRONIAZID] | 100

Reference: ChEMBL document CHEMBL3272105, “Quantitative structure-activity studies on monoamine oxidase inhibitors” (J Med Chem, 1976)
